Like-named read-outs stand apart in the source and are kept apart here. One block for each compound: values may come before it. *1 amine or outer side, *2 acyl side, *3 side chain or, on linkers, in order; H or OH if unused. Where a SMILES comes first, the peptide text is derived from it. Side-chain parts run from the residue outwards. [ ]: non-standard residue; d: D form. The star is where a group is joined. γGlu = O=C(O)[C@H](CCC(=O)[*:2])N[*:1]; Palmitoyl = CCCCCCCCCCCCCCCC(=O)*; Aib = CC(C)(N)C(=O)O
Molecular target: T1, GLP-1 receptor (Homo sapiens, UniProt P43220)
T1 construct: expressed in transfected cells; host or cells: HEK293
T1 sequence (P43220 24-463): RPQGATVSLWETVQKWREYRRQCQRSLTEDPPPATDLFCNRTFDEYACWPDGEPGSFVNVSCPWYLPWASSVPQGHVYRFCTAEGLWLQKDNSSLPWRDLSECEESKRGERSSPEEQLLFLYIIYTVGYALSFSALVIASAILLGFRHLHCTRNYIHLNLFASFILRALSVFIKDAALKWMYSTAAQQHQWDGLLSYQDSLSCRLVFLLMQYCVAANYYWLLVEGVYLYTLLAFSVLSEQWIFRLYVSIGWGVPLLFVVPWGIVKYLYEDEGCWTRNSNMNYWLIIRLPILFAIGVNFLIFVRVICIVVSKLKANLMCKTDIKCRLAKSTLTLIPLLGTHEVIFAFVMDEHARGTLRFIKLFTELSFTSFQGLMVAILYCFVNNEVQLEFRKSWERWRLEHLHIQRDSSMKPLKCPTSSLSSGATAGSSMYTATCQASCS
Experiment: cAMP induction, firefly luciferase reporter assay in HEK293 cells co-transfected with GLP-1 receptor
Format: cell-based
Description: This example describes an exemplary method of testing the biological activity of the peptides of the present disclosures, which method involves assaying cAMP synthesis.

[1] = EC50 (nM) at GLP-1 Receptor, Table 6, Example 12

EC50 (GLP-1 EC50 (nM), Table 17, Example 25): 0.222 nM
Structure (SMILES): CC[C@H](C)[C@H](NC(=O)[C@H](CO)NC(=O)[C@H](Cc1ccc(O)cc1)NC(=O)[C@H](CC(=O)O)NC(=O)[C@H](CO)NC(=O)[C@@H](NC(=O)[C@H](Cc1ccccc1)NC(=O)[C@@H](NC(=O)CNC(=O)[C@H](CCC(N)=O)NC(=O)C(C)(C)NC(=O)[C@@H](N)Cc1c[nH]cn1)[C@@H](C)O)[C@@H](C)O)C(=O)N[C@@H](Cc1ccc(O)cc1)C(=O)N[C@@H](CC(C)C)C(=O)N[C@@H](CC(=O)O)C(=O)N[C@@H](CCC(=O)O)C(=O)N[C@@H](CCCCN)C(=O)N[C@@H](CCCNC(=N)N)C(=O)N[C@@H](C)C(=O)N[C@@H](CCCCN)C(=O)N[C@@H](CCC(=O)O)C(=O)N[C@@H](Cc1ccccc1)C(=O)N[C@H](C(=O)N[C@@H](CS)C(=O)N[C@@H](Cc1c[nH]c2ccccc12)C(=O)N[C@@H](CC(C)C)C(=O)N[C@@H](CC(C)C)C(=O)N[C@@H](C)C(=O)NCC(=O)NCC(=O)N1CCC[C@H]1C(=O)N[C@@H](CO)C(=O)N[C@@H](CO)C(=O)NCC(=O)N[C@@H](C)C(=O)N1CCC[C@H]1C(=O)N1CCC[C@H]1C(=O)N1CCC[C@H]1C(=O)N[C@@H](CO)C(=O)N[C@@H](CCCCN)C(N)=O)C(C)C [SEQ ID NO: 230] (H-H[Aib]QGTFTSDYSIYLDEKRAKEFVCWLLAGGPSSGAPPPSK-NH2; N-terminus assumed)

Structure (SMILES): CCCCCCCCCCCCCCCC(=O)N[C@@H](CCC(=O)NCCCC[C@H](NC(=O)[C@H](CC(=O)O)NC(=O)[C@H](CO)NC(=O)[C@@H](NC(=O)[C@H](Cc1ccccc1)NC(=O)[C@@H](NC(=O)CNC(=O)[C@H](CCC(=O)O)NC(=O)C(C)(C)NC(=O)[C@@H](N)Cc1c[nH]cn1)[C@@H](C)O)[C@@H](C)O)C(=O)N[C@@H](CO)C(=O)N[C@@H](CCCCN)C(=O)N[C@@H](Cc1ccc(O)cc1)C(=O)N[C@@H](CC(C)C)C(=O)N[C@@H](CC(=O)O)C(=O)N[C@@H](CCC(=O)O)C(=O)N[C@@H](CCCNC(=N)N)C(=O)N[C@@H](CCCNC(=N)N)C(=O)N[C@@H](C)C(=O)NC(C)(C)C(=O)N[C@@H](CCC(=O)O)C(=O)N[C@@H](Cc1ccccc1)C(=O)N[C@H](C(=O)N[C@@H](CCC(N)=O)C(=O)N[C@@H](Cc1c[nH]c2ccccc12)C(=O)N[C@@H](CC(C)C)C(=O)N[C@@H](CC(C)C)C(=O)N[C@@H](CC(=O)O)C(=O)NCC(=O)NCC(=O)N1CCC[C@H]1C(=O)N[C@@H](CO)C(=O)N[C@@H](CO)C(=O)NCC(=O)N[C@@H](C)C(=O)N1CCC[C@H]1C(=O)N1CCC[C@H]1C(=O)N1CCC[C@H]1C(=O)N[C@@H](CO)C(N)=O)C(C)C)C(=O)O [compound 38] (H-H[Aib]EGTFTSDK([γGlu-Palmitoyl])SKYLDERRA[Aib]EFVQWLLDGGPSSGAPPPS-NH2; N-terminus assumed)
EC50 (EC50 (nM) at GLP-1 Receptor, Table 4, Example 9, composite of multiple different activity assays): 0.008 nM

Structure (SMILES): CC[C@H](C)[C@H](NC(=O)[C@H](CO)NC(=O)[C@H](Cc1ccc(O)cc1)NC(=O)[C@H](CC(=O)O)NC(=O)[C@H](CO)NC(=O)[C@@H](NC(=O)[C@H](Cc1ccccc1)NC(=O)[C@@H](NC(=O)CNC(=O)[C@H](CCC(N)=O)NC(=O)[C@@H](CO)NC(=O)[C@@H](N)Cc1ccc(O)cc1)[C@@H](C)O)[C@@H](C)O)C(=O)N[C@@H](Cc1ccc(O)cc1)C(=O)N[C@@H](CC(C)C)C(=O)N[C@@H](CC(=O)O)C(=O)N[C@@H](CCCCN)C(=O)N[C@@H](CCC(N)=O)C(=O)N[C@@H](C)C(=O)N[C@@H](C)C(=O)NC(C)(C)C(=O)N[C@@H](CCC(=O)O)C(=O)N[C@@H](Cc1ccccc1)C(=O)N[C@H](C(=O)N[C@@H](CC(N)=O)C(=O)N[C@@H](Cc1c[nH]c2ccccc12)C(=O)N[C@@H](CC(C)C)C(=O)N[C@@H](CC(C)C)C(=O)N[C@@H](C)C(=O)NCC(=O)NCC(=O)N1CCC[C@H]1C(=O)N[C@@H](CO)C(=O)N[C@@H](CO)C(=O)NCC(=O)N[C@@H](C)C(=O)N1CCC[C@H]1C(=O)N1CCC[C@H]1C(=O)N1CCC[C@H]1C(=O)N[C@@H](CO)C(=O)N[C@@H](CS)C(N)=O)C(C)C [compound 50]
EC50 [1]: 0.108 nM

Structure (SMILES): CCCCCCCCCCCCCCCC(=O)N[C@@H](CCC(=O)NCCCC[C@H](NC(=O)[C@H](CC(=O)O)NC(=O)[C@H](CO)NC(=O)[C@@H](NC(=O)[C@H](Cc1ccccc1)NC(=O)[C@@H](NC(=O)CNC(=O)[C@H](CCC(=O)O)NC(=O)C(C)(C)NC(=O)[C@@H](N)Cc1c[nH]cn1)[C@@H](C)O)[C@@H](C)O)C(=O)N[C@@H](CO)C(=O)N[C@@H](CCCCN)C(=O)N[C@@H](Cc1ccc(O)cc1)C(=O)N[C@@H](CC(C)C)C(=O)N[C@@H](CC(=O)O)C(=O)N[C@@H](CCC(=O)O)C(=O)N[C@@H](CCCNC(=N)N)C(=O)N[C@@H](C)C(=O)N[C@@H](C)C(=O)N[C@@H](CCC(N)=O)C(=O)N[C@@H](CC(=O)O)C(=O)N[C@@H](Cc1ccccc1)C(=O)N[C@H](C(=O)N[C@@H](CCC(N)=O)C(=O)N[C@@H](Cc1c[nH]c2ccccc12)C(=O)N[C@@H](CC(C)C)C(=O)N[C@@H](CC(C)C)C(=O)N[C@@H](CC(=O)O)C(=O)NCC(=O)NCC(=O)N1CCC[C@H]1C(=O)N[C@@H](CO)C(=O)N[C@@H](CO)C(=O)NCC(=O)N[C@@H](C)C(=O)N1CCC[C@H]1C(=O)N1CCC[C@H]1C(=O)N1CCC[C@H]1C(=O)N[C@@H](CO)C(N)=O)C(C)C)C(=O)O [compound 80] (H-H[Aib]EGTFTSDK([γGlu-Palmitoyl])SKYLDERAAQDFVQWLLDGGPSSGAPPPS-NH2; N-terminus assumed)
EC50 [1]: 0.008 nM

Structure (SMILES): CC[C@H](C)[C@H](NC(=O)[C@H](CO)NC(=O)[C@H](Cc1ccc(O)cc1)NC(=O)[C@H](CC(=O)O)NC(=O)[C@H](CO)NC(=O)[C@@H](NC(=O)[C@H](Cc1ccccc1)NC(=O)[C@@H](NC(=O)CNC(=O)[C@H](CCC(N)=O)NC(=O)C(C)(C)NC(=O)[C@@H](N)Cc1ccc(O)cc1)[C@@H](C)O)[C@@H](C)O)C(=O)N[C@@H](Cc1ccc(O)cc1)C(=O)N[C@@H](CC(C)C)C(=O)N[C@@H](CC(=O)O)C(=O)N[C@@H](CCCCN)C(=O)N[C@@H](CCCCN)C(=O)N[C@@H](C)C(=O)N[C@@H](C)C(=O)NC(C)(C)C(=O)N[C@@H](CCC(=O)O)C(=O)N[C@@H](Cc1ccccc1)C(=O)N[C@H](C(=O)N[C@@H](CC(N)=O)C(=O)N[C@@H](Cc1c[nH]c2ccccc12)C(=O)N[C@@H](CC(C)C)C(=O)N[C@@H](CC(C)C)C(=O)N[C@@H](C)C(=O)NCC(=O)NCC(=O)N1CCC[C@H]1C(=O)N[C@@H](CO)C(=O)N[C@@H](CO)C(=O)NCC(=O)N[C@@H](C)C(=O)N1CCC[C@H]1C(=O)N1CCC[C@H]1C(=O)N1CCC[C@H]1C(=O)N[C@@H](CO)C(=O)N[C@@H](CCCCN)C(N)=O)C(C)C [mt-402]
EC50 (read-out: GLP-1 Receptor EC50, Table 1, Example 6): 0.007 nM
